Columns and labels:
[1] = tested on: HCV subgenomic replicon in MH-14 cells; test: Immunoblot analysis of HCV NS5A and NS5B proteins in MH-14 HCV replicon cells; type: cell-based, Hepatitis C virus (HCV); details: 7 days
Protocol: (§1) Cell culture: Huh-7 and MH-14 cells, HCV replicon cells, are cultured in Dulbecco's modified Eagle's medium (DMEM) with 10% fetal bovine serum (FBS). PH5CH8 cells are cultured in a 1:1 mixture of DMEM and F12 medium supplemented with 100 ng/ml of epidermal growth factor, 10 μu/ml of insulin, 0.36 μg/ml of hydrocortisone, 5 μg/ml of transferrin, 5 μg/ml of linoleic acid, 20 ng/ml of selenium, 4 μg/ml of glucagon, 10 ng/ml of prolactin, 10 μg/ml of gentamicin, 200 μg/ml of kanamycin, and 2% FBS.
Immunoblot analysis: Immunoblot analysis is performed as described by K. Watashi et al., Virology 2001, 286, 391-402. The primary antibodies used in this experiment are anti-NS5A, anti-NS5B, and anti-β-actin (Sigma) antibodies.
The effect of various cyclosporins of the invention on the replication of the HCV genome using MH-14 cells, in which the HCV subgenomic replicon as shown in FIG. 1A is autonomously replicated.

[2] = tested on: HCV in PH5CH8 cells (non-neoplastic hepatocyte cell line); test: In vitro HCV infection experiment in PH5CH8 cells, real time RT-PCR; type: cell-based, Hepatitis C virus (HCV); details: PH5CH8 cells treated with HCV-positive plasma, continuous treatment; untreated cells about 10-fold increase
Protocol: as §1
(§2) The forward and reverse primers used in this experiment are 5′-[…]-3′ and 5′-[…]-3′, respectively. The fluorogenic probe is 5′-[…]-3′. As an internal control, ribosomal RNA is also quantified using TaqMan Ribosomal RNA Control Reagents (Applied Biosystems).

[3] = tested on: HCV subgenomic replicon in MH-14 cells; details: 7th day of treatment
Protocol: as §1, §2
(§3) Replicon RNA is analyzed in MH-14 cells treated with or without a cyclosporin of the invention or IFNα for 7 days by northern blot analysis.

[4] = tested on: HCV subgenomic replicon in MH-14 cells; test: Northern blot analysis of replicon RNA in MH-14 cells; type: cell-based, Hepatitis C virus (HCV); details: 1 μg/ml, 7 days
Protocol: as §1
Northern Blot Analysis: Nothern blot analysis is performed as described by H. Kishine et al., Biochem. Biophys. Res. Commun., 2002, 47, 119-125. The probe complementary to the NS5B sequence used in this experiment is described by H. Kishine, supra.
as §3

Substance | amount of HCV NS5A and NS5B proteins by immunoblot analysis ([1]; 100 U/ml, positive control) | increase of HCV RNA genome titer, 5th day vs 1st day post-inoculation [2] | level of HCV RNA relative to the original [3] | amount of replicon RNA by northern blot [4] | amount of HCV NS5A and NS5B proteins by immunoblot analysis ([1]; 1 μg/ml)
IFNα | undetectable | significant increase of the HCV RNA genome titer at these time points was not observed |  |  | 
[MeIle]^4-Ciclosporin |  | significant increase of the HCV RNA genome titer at these time points was not observed | about 1/400 | undetectable | undetectable
